Measured values taken from patent US7109193B2, “Tricyclic diazepines tocolytic oxytocin receptor antagonists” (Wyeth, priority 2001, dated 2006).

Molecular target: T1, human vasopressin V2 receptor subtype (Homo sapiens, UniProt P30518)
T1 construct: host or cells: CHO cells (pZeoSV vector)
Assay: Vasopressin binding in Chinese Hamster Ovary cell membranes expressing human vasopressin V2 subtype receptors
Conditions: 100 nM, CHO cell membranes, [3H]arginine vasopressin, values without parentheses
How it was run: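 Radioligand displacement on membranes from CHO cells stably expressing human V2 receptor, 25 to 50 μg protein/well, in 50 mM Tris-HCl pH 7.4 with MgCl2, BSA and protease inhibitors. [^3H]arginine vasopressin (8 nM working solution) incubated 60 min at room temperature; bound label measured by filtration and scintillation counting.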

T1 sequence (P30518 whole entry): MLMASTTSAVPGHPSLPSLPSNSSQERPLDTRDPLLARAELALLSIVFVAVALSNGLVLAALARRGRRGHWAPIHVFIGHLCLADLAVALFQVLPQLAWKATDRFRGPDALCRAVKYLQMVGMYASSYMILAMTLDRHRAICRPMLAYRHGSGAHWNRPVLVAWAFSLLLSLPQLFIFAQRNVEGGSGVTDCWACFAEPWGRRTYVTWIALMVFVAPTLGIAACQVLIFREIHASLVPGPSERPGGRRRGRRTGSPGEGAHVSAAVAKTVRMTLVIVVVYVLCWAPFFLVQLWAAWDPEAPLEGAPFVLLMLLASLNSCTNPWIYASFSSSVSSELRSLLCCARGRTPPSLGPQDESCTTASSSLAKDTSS

| Compound | inhibition at 0.1 µM [%] |
| --- | --- |
| COc1cccc(-c2ccc(C(=O)N3Cc4ccc(C(=O)NCCN5CCCCC5)n4Cc4ccccc43)cc2OC)c1 [Example 159, 10-[(2,3′-Dimethoxy[1,1′-biphenyl]-4-yl)carbonyl]-N-[2-(1-piperidinyl)ethyl]-10,11-dihydro-5H-pyrrolo[2,1-c][1,4]benzodiazepine-3-carboxamide] | 16 |
| COc1cccc(-c2ccc(C(=O)N3Cc4ccc(C(=O)N5CCN(CCN6CCOCC6)CC5)n4Cc4ccccc43)cc2OC)c1 [Example 211, {10-[(2,3′-Dimethoxy[1,1′-biphenyl]-4-yl)carbonyl]-10,11-dihydro-5H-pyrrolo[2,1-c][1,4]benzodiazepin-3-yl}{4-[2-(4-morpholinyl)ethyl]-1-piperazinyl}methanone] | 23 |
| COc1cc(C(=O)N2Cc3ccc(C(=O)N4CCN(CCN5CCOCC5)CC4)n3Cc3ccccc32)ccc1-c1ccccc1C [Example 210, {10-[(2-Methoxy-2′-methyl[1,1′-biphenyl]-4-yl)carbonyl]-10,11-dihydro-5H-pyrrolo[2,1-c][1,4]benzodiazepin-3-yl}{4-[2-(4-morpholinyl)ethyl]-1-piperazinyl}methanone] | 17 |
| COc1cccc(-c2ccc(C(=O)N3Cc4ccc(C(=O)NCCC5CCCN5C)n4Cc4ccccc43)cc2OC)c1 (stereo not shown) [Example 172, 10-[(2,3′-Dimethoxy[1,1′-biphenyl]-4-yl)carbonyl]-N-[2-(1-methyl-2-pyrrolidinyl)ethyl]-10,11-dihydro-5H-pyrrolo[2,1-c][1,4]benzodiazepine-3-carboxamide] | 11 |
| COc1cc(-c2ccccc2C)c(Cl)cc1C(=O)N1Cc2ccc(C(=O)NCCC3CCCN3C)n2Cc2ccccc21 (stereo not shown) [Example 168, 10-[(6-Chloro-3-methoxy-2′-methyl[1,1′-biphenyl]-4-yl)carbonyl]-N-[2-(1-methyl-2-pyrrolidinyl)ethyl]-10,11-dihydro-5H-pyrrolo[2,1-c][1,4]benzodiazepine-3-carboxamide] | 10 |
| COc1ccccc1-c1ccc(C(=O)N2Cc3ccc(C(=O)N4CCN(C(C)C)CC4)n3Cc3ccccc32)cc1C [Example 232, (4-Isopropyl-1-piperazinyl){10-[(2′-methoxy-2-methyl[1,1′-biphenyl]-4-yl)carbonyl]-10,11-dihydro-5H-pyrrolo[2,1-c][1,4]benzodiazepin-3-yl}methanone] | 4 |
| C=CCN1CCN(C(=O)c2ccc3n2Cc2ccccc2N(C(=O)c2cc(Cl)c(-c4cccc(OC)c4)cc2OC)C3)CC1 [Example 226, (4-Allyl-1-piperazinyl){10-[(6-chloro-3,3′-dimethoxy[1,1′-biphenyl]-4-yl)carbonyl]-10,11-dihydro-5H-pyrrolo[2,1-c][1,4]benzodiazepin-3-yl}methanone] | 10 |
| COc1cccc(-c2cc(OC)c(C(=O)N3Cc4ccc(C(=O)N(C)C5CCN(C)C5)n4Cc4ccccc43)cc2Cl)c1 (stereo not shown) [Example 191, 10-[(6-Chloro-3,3′-dimethoxy[1,1′-biphenyl]-4-yl)carbonyl]-N-methyl-N-(1-methyl-3-pyrrolidinyl)-10,11-dihydro-5H-pyrrolo[2,1-c][1,4]benzodiazepine-3-carboxamide] | 17 |
| C=CCN1CCN(C(=O)c2ccc3n2Cc2ccccc2N(C(=O)c2ccc(-c4ccccc4C)cc2)C3)CC1 [Example 224, (4-Allyl-1-piperazinyl){10-[(2′-methyl[1,1′-biphenyl]-4-yl)carbonyl]-10,11-dihydro-5H -pyrrolo[2,1-c][1,4]benzodiazepin-3-yl}methanone] | 7 |

Now from value to compound:

| inhibition at 0.1 µM [%] | Compound |
| --- | --- |
| 28 | COc1cc(C(=O)N2Cc3ccc(C(=O)N(C)C4CCN(C)C4)n3Cc3ccccc32)ccc1-c1cccc2ccccc12 (stereo not shown) [Example 192, 10-[3-Methoxy-4-(1-naphthyl)benzoyl]-N-methyl-N-(1-methyl-3-pyrrolidinyl)-10,11-dihydro-5H-pyrrolo[2,1-c][1,4]benzodiazepine-3-carboxamide] |
| 22 | COc1cc(C(=O)N2Cc3ccc(C(=O)N(C)C4CCN(C)C4)n3Cc3ccccc32)ccc1-c1ccccc1C (stereo not shown) [Example 189, 10-[(2-Methoxy-2′-methyl[1,1′-biphenyl]-4-yl)carbonyl]-N-methyl-N-(1-methyl-3-pyrrolidinyl)-10,11-dihydro-5H-pyrrolo[2,1-c][1,4]benzodiazepine-3-carboxamide] |
| 10 | Cc1ccccc1-c1ccc(C(=O)N2Cc3ccc(C(=O)N(C)C4CCN(C)C4)n3Cc3ccccc32)cc1 (stereo not shown) [Example 188, N-Methyl-10-[(2′-methyl[1,1′-biphenyl]-4-yl)carbonyl]-N-(1-methyl-3-pyrrolidinyl)-10,11-dihydro-5H-pyrrolo[2,1-c][1,4]benzodiazepine-3-carboxamide] |
| 6 | COc1ccccc1-c1ccc(C(=O)N2Cc3ccc(C(=O)N4CCN(CCN(C)C)CC4)n3Cc3ccccc32)cc1OC [Example 204, {10-[(2,2′-Dimethoxy[1,1′-biphenyl]-4-yl)carbonyl]-10,11-dihydro-5H-pyrrolo[2,1-c][1,4]benzodiazepin-3-yl}{4-[2-(dimethylamino)ethyl]-1-piperazinyl}methanone] |
| 18 | COc1ccccc1-c1ccc(C(=O)N2Cc3ccc(C(=O)N(C)C4CCN(C)CC4)n3Cc3ccccc32)cc1OC [Example 183, 10-[(2,2′-Dimethoxy[1,1′-biphenyl]-4-yl)carbonyl]-N-methyl-N-(1-methyl-4-piperidinyl)-10,11-dihydro-5H-pyrrolo[2,1-c][1,4]benzodiazepine-3-carboxamide] |
| -5 | C=CCN1CCN(C(=O)c2ccc3n2Cc2ccccc2N(C(=O)c2ccc(-c4cccc5ccccc45)c(OC)c2)C3)CC1 [Example 231, (4-Allyl-1-piperazinyl){10-[3-methoxy-4-(1-naphthyl)benzoyl]-10,11-dihydro-5H -pyrrolo[2,1-c][1,4]benzodiazepin-3-yl}methanone] |
| 9 | COc1cc(-c2ccccc2C)c(Cl)cc1C(=O)N1Cc2ccc(C(=O)N(C)C3CCN(C)C3)n2Cc2ccccc21 (stereo not shown) [Example 190, 10-[(6-Chloro-3-methoxy-2′-methyl[1,1′-biphenyl]-4-yl)carbonyl]-N-methyl-N-(1-methyl-3-pyrrolidinyl)-10,11-dihydro-5H-pyrrolo[2,1-c][1,4]benzodiazepine-3-carboxamide] |
| 35 | COc1cc(C(=O)N2Cc3ccc(C(=O)N(C)C4CCN(C)CC4)n3Cc3ccccc32)ccc1-c1cccc2ccccc12 [Example 182, 10-[3-Methoxy-4-(1-naphthyl)benzoyl]-N-methyl-N-(1-methyl-4-piperidinyl)-10,11-dihydro-5H-pyrrolo[2,1-c][1,4]benzodiazepine-3-carboxamide] |
| 17 | CN1CCCC1CCNC(=O)c1ccc2n1Cc1ccccc1N(C(=O)c1ccc(-c3cccc4ccccc34)cc1Cl)C2 (stereo not shown) [Example 173, 10-[2-Chloro-4-(1-naphthyl)benzoyl]-N-[2-(1-methyl-2-pyrrolidinyl)ethyl]-10,11-dihydro-5H-pyrrolo[2,1-c][1,4]benzodiazepine-3-carboxamide] |
| 31 | COc1ccccc1-c1ccc(C(=O)N2Cc3ccc(C(=O)N(C)C4CCN(C)C4)n3Cc3ccccc32)cc1 (stereo not shown) [Example 187, 10-[(2′-Methoxy[1,1′-biphenyl]-4-yl)carbonyl]-N-methyl-N-(1-methyl-3-pyrrolidinyl)-10,11-dihydro-5H-pyrrolo[2,1-c][1,4]benzodiazepine-3-carboxamide] |
